Test results from patent publication US9005636B2, “Pharmaceutical composition comprising metformin and rosuvastatin” (BCWorld Pharm Co., Ltd., priority 2009, dated 2015).

What was measured:
Assay type in all cases: cell-based, rat
[1] = tested on: PGC-1 α; test: ELISA of PGC-1 α protein expression
[2] = tested on: L6 muscle cells; test: Cell morphology (confluence) of L6 muscle cells by microscope; details: 48 hours
Experimental: (§1) Rat myoblast cell line L6 used herein was obtained from Korean Cell Line Bank. Cells were cultured until the number of cells reached 1×10^6 in T-75 flask (BD Biosciences) using DMEM (Dulbecco's Modified Eagle medium) supplemented with 4.5 g/L of D-glucose, L-glutamine, 0.11 g/L of sodium pyruvate and 10% FBS (Fetal bovine serum, Gibco; Invitrogen Corp., CA, USA). To differentiate cells, the medium with 2% HS (Horse serum, Gibco; Invitrogen Corp., CA, USA) was inoculated and the cells were incubated at 37° C. in 5% CO2 incubator (Forma scientific, Germany). The medium was replaced every 2 days and subculture was conducted every 3 to 4 days. In addition, the myoblast cells, used in this experiment, were differentiated up to 0.3×10^6 in 6 well plate (BD biosciences) before they were used. After the washing step with PBS (Gibco; Invitrogen Corp., CA, USA), the cells were used for ELISA, MTT and PCR analysis.
To compare the morphology of L6 muscle cells on the concentration of metformin, 0.5×10^5 muscle cells were seeded onto each well in 6 well plate (Falcon) and incubated at 37° C. in 5% CO2 incubator for 24 hours. 20 μM of rosuvastatin was treated and 0, 1, 10, 20, and 100 μM of metformin was treated, respectively. After 48 hours, all of them were observed using a microscope (IS-70, Olympus),

[3] = tested on: Atrogin-1; test: ELISA of Atrogin-1 protein expression; details: as the concentration of rosuvastatin was increased
Experimental: as §1, with “analysis. […] Non-bound material was removed after washing four times with phosphate-buffered saline containing 0.2% tween 20 (PBS-T). The plate was washed 4 times with PBS buffer containing 0.2% Tween 20; and 200 μl of blocking solution (GenDEPOT) containing 1% BSA (Bovine Serum Albumin) with PBS was seeded onto each well and incubated for 2 hours at 4° C. […] Lastly, the absorbance was measured at 450 nm using an ELISA reader.” for “analysis.”

[4] = tested on: L6 muscle cells; test: MTT assay, viability of L6 muscle cells; details: 20 μM of rosuvastatin only, 48 hours
Experimental: MTT assay was carried out to determine the viability of L6 muscle cells. 1×10^4 cells were seeded onto each well in 96 well plate and incubated at 37° C. in 5% CO2 incubator for 24 hours.
20 μM of rosuvastatin was treated and 0, 1, 10, 20 and 100 μM of metformin was treated, respectively. […] Lastly, the optical density of formazan was measured at 570 nm using an ELISA Reader.

[5] = tested on: Atrogin-1 mRNA; test: RT-PCR of Atrogin-1 mRNA in L6 muscle cells; details: 20 μM of rosuvastatin
Experimental: as §1
To measure the mRNA level of Atrogen-1 in muscle cells depending on concentration of metformin, the cells were homogenized in 500 μl of Trizol (Invitrogen) and 3 μg of total RNA was collected using a cell scraper. […]

| SMILES | protein level of PGC-1 α compared to negative control ([1]; 0.1 μM of metformin) | protein level of PGC-1 α ([1]; more than 1 μM of metformin) | confluence of L6 cells ([2]; 20 μM of rosuvastatin plus 1, 10, 20, 100 μM of metformin) | protein expression of Atrogin-1 [3] | confluence of L6 cells compared to the group without treatment ([2]; 20 μM of rosuvastatin) | viability of the cells (MTT) [4] | mRNA expression of Atrogin-1 compared to negative control [5] |
| --- | --- | --- | --- | --- | --- | --- | --- |
| CN(C)C(=N)N=C(N)N [metformin] | did not show a significant difference | increase | increased as the concentration of metformin increased | – | – | – | – |
| CC(C)c1nc(N(C)S(C)(=O)=O)nc(-c2ccc(F)cc2)c1/C=C/[C@@H](O)C[C@@H](O)CC(=O)O [rosuvastatin] | – | – | – | increased | decreased significantly | significant decrease | increased |
